# Assay results published in PMC6657673, “Synthesis of an α-phosphono-α,α-difluoroacetamide analogue of the diphosphoinositol pentakisphosphate 5-InsP7” (MedChemComm, 2019).
# Target: T1, diphosphoinositol pentakisphosphate kinase 2 (PPIP5K2) (Homo sapiens, UniProt O43314)
# T1 construct: kinase domain, residues 41–366 (crystal); residues 1–366 (kinase assay)
# T1 sequence (O43314 1-366): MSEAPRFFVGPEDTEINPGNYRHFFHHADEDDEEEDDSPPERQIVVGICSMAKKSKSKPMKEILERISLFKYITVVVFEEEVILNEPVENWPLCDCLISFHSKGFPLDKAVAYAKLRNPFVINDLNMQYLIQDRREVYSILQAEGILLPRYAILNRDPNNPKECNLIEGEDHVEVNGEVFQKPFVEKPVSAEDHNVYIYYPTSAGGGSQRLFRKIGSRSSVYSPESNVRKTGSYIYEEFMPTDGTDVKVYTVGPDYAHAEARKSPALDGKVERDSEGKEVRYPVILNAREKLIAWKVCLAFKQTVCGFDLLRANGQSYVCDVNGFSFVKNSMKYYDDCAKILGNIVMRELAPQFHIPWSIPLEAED
# Assay: X-ray co-crystal structure (soak); also reverse-kinase inhibition assay (ATP generation from ADP and […]-[PP]2-InsP4)
# Assay type: biochemical
smiles,measurement,value
"O=C(N[C@@H]1[C@@H](OP(=O)(O)O)[C@H](OP(=O)(O)O)[C@H](OP(=O)(O)O)[C@H](OP(=O)(O)O)[C@H]1OP(=O)(O)O)C(F)(F)P(=O)(O)O [compound 1, 5-Deoxy-5-(phosphonodifluoroacetamido)-myo-inositol 1,2,3,4,6-pentakisphosphate]",IC50,375 nM
